Like-named read-outs stand apart in the source and are kept apart here.
Tests used:
[1] = biological target: T1, maxi-K channels from bovine aortic smooth muscle (Bos taurus, UniProt Q28204); experiment: Patch clamp recording of maxi-K channel currents in excised inside-out membrane patches; type: biochemical; details: for IC50: table of Example 4, read-out: 50% CHANNEL BLOCK; for block of maxi-K channels relative to Compound C: compared with Compound C; for inhibition at 0.01 µM: pH 7.2
T1 construct: membrane patches excised from cultured bovine aortic smooth muscle cells; endogenous in cells; host or cells: cultured bovine aortic smooth muscle cells
Excerpt: Patch clamp recordings of currents flowing through large-conductance calcium-activated potassium (maxi-K) channels were made from membrane patches excised from cultured bovine aortic smooth muscle cells using conventional techniques (Hamill et al., 1981, Pflugers Archiv. 391, 85-100) at room temperature. Glass capillary tubing (Gamer #7052) was pulled in two stages to yield micropipettes with tip diameters of approximately 1-2 microns. Pipettes were typically filled with solutions containing (mM): 150 KCl, 10 Hepes (4-(2-hydroxyethyl)-1-piperazine ethanesulfonic acid), 1 Mg, 0.01 Ca, and adjusted to pH 7.20 with 3.7 mM KOH. After forming a high resistance (>10^9 ohms) seal between the sarcolemmal membrane and the pipette, the pipette was withdrawn from the cell, forming an excised inside-out membrane patch. The patch was excised into a bath solution containing (mM): 150 KCl, 10 Hepes, 5 EGTA (ethylene glycol bis(13-aminoethyl ether)-N,N,N',N'-tetraacetic acid), sufficient Ca to yield a free Ca concentration of 1-5 μM, and the pH was adjusted to 7.2 with 10.5 KOH. For example, 4.568 mM Ca was added to give a free concentration of 2 μM at 22 ° C. An AXOPATCH 1C amplifier (Axon Instruments, Foster City, Calif.) with a CV-4 headstage was used to control the voltage and to measure the currents flowing across the membrane patch. The input to the headstage was connected to the pipette solution with a Ag/AgCl wire, and the amplifier ground was connected to the bath solution with a Ag/AgCl wire covered with a tube filled with agar dissolved in 0.2M KCl. Maxi-K channels were identified by their large single channel conductance (~250 pS) and sensitivity of channel open probability to membrane potential and intracellular calcium concentration.
Data were stored on a RACAL STORE 4DS FM tape recorder (Racal Recorders, Vienna, Va.) or on digital video tape using a video casette recorder after digitizing the signal with VR-10 (Instrutech Corp., Belmont N.Y.) PCM video encoder. The signal was also recorded on chart paper with a GOULD 2400S chart recorder (Gould Inc., Cleveland Ohio). For quantitative analysis, the data was played into a DEC11-73 (Digital Equipment Corp., Maynard, Mass.) after digitization with a DT2782-8D1A analogue to digital converter (Data Translation Inc., Marlboro, Mass.), or played into a Mac IIx or Quadra 700 computer (Apple Computers) after digitization with an ITC-16 interface (Instrutech Corp., Belmont, N.Y.).

[2] = biological target: T2, bovine aortic sarcolemma membrane vesicles ([^125 I]ChTX receptor) (Bos taurus, UniProt Q28204); experiment: [^125 I]ChTX binding assay with aortic sarcolemma membrane vesicles; details: for effect on [^125 I]ChTX binding: 1 nM to 100 μM
T2 construct: bovine aortic s sarcolemma membrane vesicles; from tissue; host or cells: bovine aorta, sarcolemma membrane vesicles
Experimental: The interaction of [^125 I]ChTX with bovine aortic s sarcolemma membrane vesicles was determined under conditions as described (Vazquez et al., 1989, J. Biol. Chem. 264, 20902-20909). Briefly, sarcolemma membrane vesicles were incubated in 12×75 polystyrene tubes with ca. 25 pM [^125 I]ChTX (2200 Ci/mmol), in the absence or presence of test compound, in a media consisting of 20 mM NaCl, 20 mM Tris-HCl pH 7.4, 0.1% bovine serum albumin, 0.1% digitonin. Nonspecific binding was determined in the presence of 10 nM ChTX. Incubations were carried out at room temperature until ligand binding equilibrium is achieved at ca. 90 min. At the end of the incubation period, samples were diluted with 4 mL ice-cold 100 mM NaCl, 20 mM Hepes-Tris pH 7.4 and filtered through GF/C glass fiber filters that have been presoaked in 0.5% polyethylenimine. Filters were rinsed twice with 4 mL ice-cold quench solution. Radioactivity associated with filters was determined in a gamma counter. Specific binding data in the presence of each compound (difference between total binding and nonspecific binding) was assessed relative to an untreated control.

T2 sequence (Q28204 whole entry): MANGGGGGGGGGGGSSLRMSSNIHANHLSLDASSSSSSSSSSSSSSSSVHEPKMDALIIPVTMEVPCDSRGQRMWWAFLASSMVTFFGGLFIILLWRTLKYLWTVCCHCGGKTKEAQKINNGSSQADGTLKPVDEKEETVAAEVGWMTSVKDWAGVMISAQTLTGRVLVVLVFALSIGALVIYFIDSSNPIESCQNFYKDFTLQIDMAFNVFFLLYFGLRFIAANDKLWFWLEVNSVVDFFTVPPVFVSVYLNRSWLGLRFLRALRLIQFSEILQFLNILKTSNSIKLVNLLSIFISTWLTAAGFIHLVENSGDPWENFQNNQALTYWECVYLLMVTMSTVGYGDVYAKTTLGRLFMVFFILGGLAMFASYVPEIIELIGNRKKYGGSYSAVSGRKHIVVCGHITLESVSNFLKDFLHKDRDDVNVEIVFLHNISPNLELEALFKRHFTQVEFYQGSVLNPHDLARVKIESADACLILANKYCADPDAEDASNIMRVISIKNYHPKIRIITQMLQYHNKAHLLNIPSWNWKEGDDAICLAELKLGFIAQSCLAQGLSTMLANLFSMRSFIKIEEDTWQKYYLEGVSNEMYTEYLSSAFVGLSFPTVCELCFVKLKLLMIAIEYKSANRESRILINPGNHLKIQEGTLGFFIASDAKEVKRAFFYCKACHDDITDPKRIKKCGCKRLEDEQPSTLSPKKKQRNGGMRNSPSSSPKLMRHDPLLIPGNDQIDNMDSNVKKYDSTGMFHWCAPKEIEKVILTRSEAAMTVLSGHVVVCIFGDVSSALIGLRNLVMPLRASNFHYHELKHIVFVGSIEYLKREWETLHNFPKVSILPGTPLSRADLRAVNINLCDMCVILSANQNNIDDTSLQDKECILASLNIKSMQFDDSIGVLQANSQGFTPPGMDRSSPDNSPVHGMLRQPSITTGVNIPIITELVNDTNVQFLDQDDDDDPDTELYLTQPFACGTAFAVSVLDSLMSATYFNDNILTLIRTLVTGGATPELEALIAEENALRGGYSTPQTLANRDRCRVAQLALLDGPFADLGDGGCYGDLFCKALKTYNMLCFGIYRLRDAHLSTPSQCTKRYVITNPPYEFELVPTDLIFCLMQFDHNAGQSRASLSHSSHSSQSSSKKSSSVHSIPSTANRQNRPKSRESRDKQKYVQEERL
T2 sequence (Q28067 whole entry partner): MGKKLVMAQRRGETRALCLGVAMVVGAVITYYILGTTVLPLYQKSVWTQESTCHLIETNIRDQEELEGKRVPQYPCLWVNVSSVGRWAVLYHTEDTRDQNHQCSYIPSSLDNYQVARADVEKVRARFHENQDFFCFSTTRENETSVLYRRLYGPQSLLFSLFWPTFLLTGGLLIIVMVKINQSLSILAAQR
T1 sequence (Q28204 whole entry): as the sequence (Q28204 whole entry) above

With `CC(C)=CCc1cccc2[nH]c3c(c12)CC1CCC2(O)C45OC4C4OC(C=C(C)C)OC(C)(C)C4OC5=CCC2(C)C31C` (stereo not shown) [Compound C] the “block of maxi-K channels / channel activity” value ([1]; 10 nM) was “rapid and complete block”, the “reversal of block on washout” value ([1]; 10 nM, brief (~10 min) washout) was “not reversed” and the IC50 [1] was < 10 nM. It also gave an inhibition at 10 µM ([2]; read-out: inhibition of [^125 I]ChTX binding) of 29%.
`CC(C)(O)C1CC(O)C2(C(=O)O)C(CCC3(C)C2CCC2Cc4c([nH]c5ccccc45)C23C)O1` (stereo not shown) [Compound D, hydroxypaspalinic acid] was tested, and the “block of channel activity” value ([1]; 1 μM) was “complete block was not observed”, the “block of maxi-K channels relative to Compound C” value [1] was “weaker blockers of maxi-K channels than Compound C” and the inhibition at 0.01 µM ([1]; 10 nM, read-out: reduction in channel open probability) was < 50%. The IC50 [1] was ~1000 nM and the “effect on [^125 I]ChTX binding” value [2] was “did not have any effect on binding”.
In the case of `COC(=O)C12C(O)CC(C(C)(C)O)OC1CCC1(C)C2CCC2Cc3c([nH]c4ccccc34)C21C` (stereo not shown) [Compound E, methyl hydroxypaspalinate], the “effect on channel open probability” value ([1]; 1 μM) is reported as “no significant effect on channel open probability”, the “block of channel activity” value ([1]; 10 μM) is reported as “incomplete block of channel activity” and the “time over which block of channel activity slowly increased” value ([1]; 10 μM) is reported as 5 to 10 min. The “block of maxi-K channels relative to Compound C” value [1] was “weaker blockers of maxi-K channels than Compound C”, the IC50 [1] was > 10000 nM and the “effect on [^125 I]ChTX binding” value [2] was “did not affect [^125 I]ChTX binding”.
For `CC1(C)ON=C2C=C3C(CCC4(C)C3(O)CCC3Cc5c([nH]c6ccccc56)C34C)OC21` (stereo not shown) [Compound F, Paxizoline], the inhibition at 0.01 µM ([1]; 10 nM, read-out: decrease in channel activity) was ~50%, the IC50 [1] was ~10 nM and the “effect on amount of toxin bound to its receptor” value ([2]; 50 nM to 2 μM) was “small increase in the amount of toxin bound to its receptor”. For the same compound, the “effect on toxin binding” value ([2]; concentrations above 5 μM) was “concentration-dependent inhibition of binding”.
